How the values were obtained:
[1] = biological target: T1, human GPR40 (Homo sapiens, UniProt O14842); test: GPR40 β-arrestin 2 recruitment BRET, agonist mode; type: cell-based; conditions: HEK293 cells, read-out: GPR40 (agonist mode) EC50 β-arr2
T1 construct: host or cells: HEK293 (transient)
Text: (§1) Plasmids: The cDNA clones for human GPR40 and GPR84 receptors, human β-arrestin 2, Gαi2, Gβ1, and Gγ2 were obtained from the cDNA Resource Center (www.cdna.org). A plasmid encoding the human GPR120-L (long isoform) cDNA was obtained from R&D Systems. GPR120-S (short isoform) was generated by replacing the BglII-BsgI fragment from GPR120-L by a gBlock gene fragment (Integrated DNA Technologies, IA) lacking the DNA sequence corresponding to the extra 16 amino acids found in the third intracellular loop of the long form. GFP10 (F64L, S147P, S202F and H231L variant of Aequorea victoria GFP) gBlocks gene fragments (Integrated DNA Technologies) and linker were inserted in frame at the N-terminus of human Gγ2, or at the C-terminus of GPR40 and GPR120. Rluc8 (A55T, C124A, S130A, K136R, A143M, M185V, M253L, and S287L variant of the Renilla luciferase) gBlocks gene fragment (Integrated DNA Technologies) was inserted with linkers in between residues 91 and 92 of Gα2 or at the N-terminus of β-arrestin 2.
(§2) BRET measurements: a Gαi bioluminescence resonance energy transfer (BRET) biosensor was used to directly monitor GPR84-mediated activation of Gαi. The Gαi biosensor consists of a Rluc8-tagged Gαi2 subunit, a GFP10-tagged Gγ2 subunit, and an untagged Gβ1. Agonist stimulation and ensuing GPR84 activation triggers a physical separation between the RLuc8-Gαi donor and the GFP10-Gγ2 acceptor, resulting in a decrease in BRET signal whose amplitude is correlated to ligand efficacy. A BRET-based assay that allows the monitoring of Rluc8-tagged β-arrestin 2 recruitment to GFP10-tagged GPR40 or GFP10-tagged GPR120 was used to assess GPR40 or GPR120 activation. Transiently transfected HEK293 cells were seeded in 96-well white clear bottom Costar microplates (Fisher Scientific) coated with poly-D-lysine (Sigma-Aldrich) and left in culture for 24 hours. Cells were washed once with Tyrode's buffer (140 mmol/L NaCl, 1 mmol/L CaCl2, 2.7 mmol/L KCl, 0.49 mmol/L MgCl2, 0.37 mmol/L NaH2PO4, 5.6 mmol/L glucose, 12 mmol/L NaHCO3, and 25 mmol/L HEPES, pH 7.5) and the Rluc8 substrate coelenterazine 400A (Prolume, Lakeside, Ariz.) added at a final concentration of 5 μmol/L in Tyrode's buffer. Ligands were incubated with cells at room temperature for 5 minutes (G protein) or 25 minutes (β-arrestin) before reading BRET signal. In GPR84 antagonist mode, cells were treated with 125 μmol/L of the GPR84 agonist sodium decanoate in combination with test compounds. BRET readings were collected using an Infinite M1000 microplate reader (Tecan, Morrisville, N.C.). BRET^2 readings between Rluc8 and GFP10 were collected by sequential integration of the signals detected in the 370 to 450 nm (Rluc8) and 510 to 540 nm (GFP10) windows. The BRET signal was calculated as the ratio of light emitted by acceptor (GFP10) over the light emitted by donor (Rluc8). The values were corrected to net BRET by subtracting the background BRET signal obtained in cells transfected with Rluc8 constructs alone. Ligand-promoted net BRET values were calculated by subtracting vehicle-induced net BRET from ligand-induced net BRET.

[2] = biological target: T2, human GPR120 (Homo sapiens, UniProt Q5NUL3); test: GPR120 β-arrestin 2 recruitment BRET, agonist mode; type: cell-based; conditions: HEK293 cells, read-out: GPR120 (agonist mode) EC50 β-arr2
T2 sequence (Q5NUL3 1-361): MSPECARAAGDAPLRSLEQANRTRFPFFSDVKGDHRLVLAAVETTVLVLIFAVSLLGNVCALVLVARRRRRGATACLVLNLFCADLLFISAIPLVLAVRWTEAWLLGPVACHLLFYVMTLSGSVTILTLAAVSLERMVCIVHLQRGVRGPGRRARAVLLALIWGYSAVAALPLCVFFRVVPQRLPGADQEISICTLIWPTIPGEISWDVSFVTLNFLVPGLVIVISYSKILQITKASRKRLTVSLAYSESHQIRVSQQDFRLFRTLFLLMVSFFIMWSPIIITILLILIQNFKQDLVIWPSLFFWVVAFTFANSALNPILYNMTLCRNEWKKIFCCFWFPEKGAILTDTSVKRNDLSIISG
Text: as §1, §2

[3] = biological target: T3, human GPR84 (Homo sapiens, UniProt Q9NQS5); test: GPR84 Gαi BRET biosensor, antagonist mode (125 μmol/L sodium decanoate); type: cell-based; conditions: HEK293 cells, with 125 μmol/L sodium decanoate
T3 construct: host or cells: HEK293 (transient)
Text: as §1, §2

[4] = biological target: T4, human PPARδ ligand binding domain (LBD) (Homo sapiens, UniProt Q03181); test: Cell-based GAL4 PPAR transactivation assay in HEK293 cells, PPARδ; conditions: 24 h
T4 construct: PPARδ (S139-Y440); host or cells: HEK293
T4 sequence (Q03181 139-441 limits assumed): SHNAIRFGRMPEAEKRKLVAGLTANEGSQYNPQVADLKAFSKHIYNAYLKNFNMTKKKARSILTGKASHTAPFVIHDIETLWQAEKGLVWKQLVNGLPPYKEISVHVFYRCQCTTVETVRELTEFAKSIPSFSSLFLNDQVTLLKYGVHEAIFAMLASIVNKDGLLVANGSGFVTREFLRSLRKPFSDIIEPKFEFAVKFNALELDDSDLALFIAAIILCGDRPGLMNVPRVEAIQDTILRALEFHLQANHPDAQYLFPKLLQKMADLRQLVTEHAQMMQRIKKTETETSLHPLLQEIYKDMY
Protocol: (§3) The peroxisome proliferator-activated receptors (PPARs), PPARα, PPARδ, and PPARγ are ligand-dependent transcription factors that control expression of several key metabolism-associated genes. The transcriptional activity of representative compounds of formula I to these receptors was assessed using a cell-based GAL4 transactivation assay in HEK293 cells transfected with either PPARα, PPARδ, or PPARγ ligand binding domain (LBD), and was compared to that of the full control agonists GW7647 (PPARα), GW0742 (PPARδ), and rosiglitazone (PPARγ).
(§4) Plasmids: The hinge region and ligand binding domain (LBD) from human PPARα (S167-Y468), PPARδ (S139-Y440) and PPARγ (S176-Y477) were PCR-amplified from a PPARα cDNA clone (cDNA Resource Center, http://www.cdna.org) or from PPARδ1 and PPARγ1 LBD gBlocks™ gene fragments (Integrated DNA Technologies). The PPAR LBD PCR products were inserted in frame with the GAL4 DNA binding domain in the pFN26A(BIND)-hRlu-neo Flexi vector (Promega) at SgfI and PmeI sites to generate GAL4-PPAR-Rluc.
(§5) Cell-based PPAR transactivation assay. HEK293 cells were co-transfected with pGL4.35[luc2P/9XGAL4UAS/Hygro] (Promega) and GAL4-PPAR-Rluc plasmids, and after 24 h of incubation were treated with compounds for 24 h. Luciferase activity was determined with the Dual Glo™ luciferase assay (Promega). Firefly luminescence was normalized to the constitutively expressed Renilla luminescence, and results expressed as fold induction of vehicle control or percentage of reference agonist maximal activity.

[5] = biological target: T5, human PPARα ligand binding domain (LBD) (Homo sapiens, UniProt Q07869); test: Cell-based GAL4 PPAR transactivation assay in HEK293 cells, PPARα; conditions: 24 h
T5 construct: human PPARα (S167-Y468); expressed in transfected cells; host or cells: HEK293
T5 sequence (Q07869 167-468): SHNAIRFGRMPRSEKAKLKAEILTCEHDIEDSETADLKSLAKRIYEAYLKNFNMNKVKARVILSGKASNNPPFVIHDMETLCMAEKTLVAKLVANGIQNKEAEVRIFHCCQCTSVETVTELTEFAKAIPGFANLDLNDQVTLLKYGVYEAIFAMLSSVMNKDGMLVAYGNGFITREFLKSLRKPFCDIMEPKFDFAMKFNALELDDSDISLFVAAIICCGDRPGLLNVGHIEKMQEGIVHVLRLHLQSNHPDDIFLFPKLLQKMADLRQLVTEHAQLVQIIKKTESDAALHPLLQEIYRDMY
Protocol: as §3, §4, §5

[6] = biological target: T6, human PPARγ ligand binding domain (LBD) (Homo sapiens, UniProt P37231); test: Cell-based GAL4 PPAR transactivation assay in HEK293 cells, PPARγ; conditions: 24 h
T6 construct: PPARγ (S176-Y477); host or cells: HEK293
T6 sequence (P37231 176-477 isoform P37231-2): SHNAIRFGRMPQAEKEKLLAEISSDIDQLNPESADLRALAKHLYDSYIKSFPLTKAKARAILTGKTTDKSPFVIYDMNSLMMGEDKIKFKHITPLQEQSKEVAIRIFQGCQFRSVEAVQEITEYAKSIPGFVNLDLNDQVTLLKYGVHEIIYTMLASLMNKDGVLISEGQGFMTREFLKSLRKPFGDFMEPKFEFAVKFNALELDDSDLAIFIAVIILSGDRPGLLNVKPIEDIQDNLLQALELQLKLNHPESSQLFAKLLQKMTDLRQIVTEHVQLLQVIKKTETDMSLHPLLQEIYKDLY
Protocol: as §3, §4, §5

[7] = biological target: T3, human GPR84; test: GPR84 Gαi BRET biosensor, agonist activity; type: cell-based; conditions: HEK293 cells
Text: as §1, §2

T3 sequence (Q9NQS5 whole entry): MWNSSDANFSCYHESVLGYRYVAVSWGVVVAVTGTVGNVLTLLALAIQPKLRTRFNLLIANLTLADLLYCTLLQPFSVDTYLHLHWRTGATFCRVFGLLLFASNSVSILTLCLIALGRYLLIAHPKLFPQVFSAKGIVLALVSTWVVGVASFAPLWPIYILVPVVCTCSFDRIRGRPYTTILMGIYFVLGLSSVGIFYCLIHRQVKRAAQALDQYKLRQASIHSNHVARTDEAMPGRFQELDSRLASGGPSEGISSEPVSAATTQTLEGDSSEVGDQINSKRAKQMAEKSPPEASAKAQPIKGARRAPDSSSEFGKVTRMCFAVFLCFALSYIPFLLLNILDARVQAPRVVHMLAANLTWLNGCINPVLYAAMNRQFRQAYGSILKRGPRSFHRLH
T1 sequence (O14842 whole entry): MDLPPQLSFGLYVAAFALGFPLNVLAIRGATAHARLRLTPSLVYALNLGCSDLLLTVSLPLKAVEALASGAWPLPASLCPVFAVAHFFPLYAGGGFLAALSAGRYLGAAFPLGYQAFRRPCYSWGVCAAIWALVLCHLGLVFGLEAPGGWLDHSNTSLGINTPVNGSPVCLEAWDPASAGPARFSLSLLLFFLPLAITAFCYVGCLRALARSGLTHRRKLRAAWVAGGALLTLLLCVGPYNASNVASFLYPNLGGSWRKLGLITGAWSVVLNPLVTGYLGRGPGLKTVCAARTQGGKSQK

SMILES | EC50 [1] | EC50 [2] | IC50 [3] | PPARδ (GAL4 reporter) % efficacity relative to GW0742 [4] | PPARα (GAL4 reporter) % efficacity relative to GW7647 [5] | PPARγ (GAL4 reporter) % efficacity relative to rosiglitazone [6] | EC50 [7]
[2H]C1([2H])C(CCCCCC)C1CC(=O)[O-].[Na+] (stereo not shown) |  |  |  | 2% | 20% | 3% | 
CCCCCC=C1CC(C(=O)O)C1 (stereo not shown) | 252 µM | > 500 µM | 131 µM |  |  |  | 
CCCCCCC1CC1C(=O)C(=O)[O-].[Na+] (stereo not shown) |  |  |  | −3% | 34% | 2% | 
CCCCCCCC1(CC(=O)O)CC1 | 122 µM | ≥ 500 µM | > 500 µM |  |  |  | 
CCCCCC1C(CCC(=O)O)C1(F)F (stereo not shown) | 133 µM | > 500 µM |  |  |  |  | 79 µM
CCCCCCC1C(CC(=O)[O-])C1(C)C.[Na+] (stereo not shown) [drawing 322] |  |  |  | 2% | 91% | 8% | 
CC1(C)CC1CCCCC/C=C/C(=O)[O-].[Na+] (stereo not shown) |  |  |  | 30% | 10% | 1% | 
CCCCCC1CC/C1=C/C(=O)O (stereo not shown) | 211 µM | 307 µM | 180 µM |  |  |  | 
CCCCCC1C(CCC(=O)O)C1(C)C (stereo not shown) | 27 µM | > 63 µM | > 63 µM |  |  |  | 
CCCC[C@H]1CC[C@H](CCC(=O)O)CC1 | 21 µM | 22 µM | 22 µM |  |  |  | 
CCCCCCCCC1(C(=O)O)CC1 | 164 µM | 245 µM | 115 µM |  |  |  | 
CC1(C)CC1CCCCC/C=C/C(=O)O (stereo not shown) | 22 µM | 61 µM |  |  |  |  | 6 µM
CCCCCCCC1(CC(=O)O)CCC1 | 21 µM | > 63 µM | > 63 µM |  |  |  | 
CCCCCCC1C(CCC(=O)O)C1(C)C (stereo not shown) | 10 µM | > 31 µM | 9 µM |  |  |  | 
[2H]C1([2H])C(CCCCCCC)C1CC(=O)[O-].[Na+] (stereo not shown) | 149 µM | 299 µM |  |  |  |  | 23 µM
CC1(C)CC1CCCCCC1CC1C(=O)O (stereo not shown) | 14.3 µM | 35 µM |  |  |  |  | 
CC1(C)CC1CCCCCCCC(=O)O (stereo not shown) | 11 µM | 77 µM |  |  |  |  | 5 µM

Now from value to compound:

EC50 [1] | EC50 [2] | IC50 [3] | PPARδ (GAL4 reporter) % efficacity relative to GW0742 [4] | PPARα (GAL4 reporter) % efficacity relative to GW7647 [5] | PPARγ (GAL4 reporter) % efficacity relative to rosiglitazone [6] | EC50 [7] | SMILES
12 µM | 377 µM | 56 µM |  |  |  |  | CCCCC[C@H]1CCC[C@@H](CC(=O)O)C1
16 µM | 45 µM | 20 µM |  |  |  |  | CCCCCC1C(CCC(=O)O)C1(Br)Br (stereo not shown)
174 µM | > 500 µM | 468 µM |  |  |  |  | CCCCCCC1C(CC(=O)O)C1(C)C (stereo not shown) [drawing 311]
126 µM | 383 µM | 117 µM |  |  |  |  | CCCCCCC1C(CC(=O)O)C1(F)F (stereo not shown)
> 500 µM | > 500 µM |  |  |  |  | 114 µM | CCCCCCC1OC1CC(=O)O (stereo not shown)
170 µM | 272 µM |  |  |  |  | < 16 µM | CCCCCCC1CC1CC(=O)O (stereo not shown)
> 63 µM | > 63 µM |  |  |  |  |  | CCCCCCC1C(CC(=O)O)C1(C)C (stereo not shown) [drawing 302]
30 µM | > 125 µM | 56 µM |  |  |  |  | CCCCCCC1C(CC(=O)O)C1(C)C (stereo not shown) [drawing 299]
321 µM | > 500 µM |  |  |  |  | 36.9 µM | CCCCCCC1CC1C(=O)C(=O)O (stereo not shown)
49 µM | > 250 µM |  |  |  |  | 13 µM | CCCCCCCC1CC1C(=O)O (stereo not shown)
70 µM | 88 µM |  |  |  |  | < 16 µM | CCCCCC1CC(=CC(=O)O)C1 (stereo not shown)
83 µM | > 500 µM | 173 µM |  |  |  |  | CCCCCC1CCC1CC(=O)O (stereo not shown)
15 µM | 90 µM | 49 µM |  |  |  |  | CCCCCC1CC(CC(=O)O)C1(C)C (stereo not shown)
87 µM | > 500 µM |  |  |  |  | 35 µM | CCCCCC1CC(CC(=O)O)C1 (stereo not shown)
63.4 µM | 382 µM |  |  |  |  | 73 µM | CCCCCCC1CC(C(=O)O)C1 (stereo not shown)

Reference: patent US20230107538A1, “CYCLOALKYL-CONTAINING CARBOXYLIC ACIDS AND USES THEREOF” (LIMINAL BIOSCIENCES LIMITED, priority 2019, published 2023)
